Test results reported in PubChem BioAssay (NCI).
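Assay format: 96-well plates, 48-hour exposure. Here, GI50 denotes the concentration required for 50% inhibition of growth. Definition used: TGI = concentration required for complete inhibition of growth.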

How the values were obtained:
Assay in all cases: NCI tumour cell line growth inhibition, 48 h
786-0 renal = tested on: 786-0 renal
A498 renal = tested on: A498 renal
A549 NSCLC = tested on: A549 NSCLC
ACHN renal = tested on: ACHN renal
BT-549 breast = tested on: BT-549 breast
CAKI-1 renal = tested on: CAKI-1 renal
CCRF-CEM leukemia = tested on: CCRF-CEM leukemia
COLO 205 colon = tested on: COLO 205 colon
DU-145 prostate = tested on: DU-145 prostate
EKVX NSCLC = tested on: EKVX NSCLC
HCC-2998 colon = tested on: HCC-2998 colon
HCT-116 colon = tested on: HCT-116 colon
HCT-15 colon = tested on: HCT-15 colon
HL-60(TB) leukemia = tested on: HL-60(TB) leukemia
HOP-62 NSCLC = tested on: HOP-62 NSCLC
HOP-92 NSCLC = tested on: HOP-92 NSCLC
HS 578T breast = tested on: HS 578T breast
HT29 colon = tested on: HT29 colon
IGROV1 ovarian = tested on: IGROV1 ovarian
K-562 leukemia = tested on: K-562 leukemia
KM12 colon = tested on: KM12 colon
LOX IMVI melanoma = tested on: LOX IMVI melanoma
M14 melanoma = tested on: M14 melanoma
MALME-3M melanoma = tested on: MALME-3M melanoma
MCF7 breast = tested on: MCF7 breast
MDA-MB-231 breast = tested on: MDA-MB-231 breast
MDA-MB-435 = tested on: MDA-MB-435
MDA-MB-468 breast = tested on: MDA-MB-468 breast
MOLT-4 leukemia = tested on: MOLT-4 leukemia
NCI-H226 lung = tested on: NCI-H226 lung

## CCCn1c(=O)c2[nH]c(-c3ccc(OCc4nc5ccc(F)cc5[nH]4)cc3)nc2n(CCC)c1=O
786-0 renal
  GI50: 16.2 µM
  TGI: > 100 µM
A498 renal
  GI50: 3.36 µM
  TGI: 21.3 µM
A549 NSCLC
  GI50: 15.5 µM
  TGI: > 100 µM
ACHN renal
  GI50: 14.9 µM
  TGI: 50.1 µM
BT-549 breast
  GI50: 25 µM
  TGI: > 100 µM
CAKI-1 renal
  GI50: 15.9 µM
  TGI: 62.4 µM
CCRF-CEM leukemia
  GI50: 8.91 µM
  TGI: > 100 µM
COLO 205 colon
  GI50: 99.1 µM
  TGI: > 100 µM
DU-145 prostate
  GI50: 41.5 µM
  TGI: > 100 µM
EKVX NSCLC
  GI50: 30.3 µM
  TGI: > 100 µM
HCC-2998 colon
  GI50: > 100 µM
  TGI: > 100 µM
HCT-116 colon
  GI50: 22.4 µM
  TGI: > 100 µM
HCT-15 colon
  GI50: 30 µM
  TGI: > 100 µM
HL-60(TB) leukemia
  GI50: > 100 µM
  TGI: > 100 µM
HOP-62 NSCLC
  GI50: 9.88 µM
  TGI: > 100 µM
HOP-92 NSCLC
  GI50: 4.78 µM
  TGI: 36.8 µM
HS 578T breast
  GI50: 4.1 µM
  TGI: > 100 µM
HT29 colon
  GI50: 26.9 µM
  TGI: > 100 µM
IGROV1 ovarian
  GI50: 16.5 µM
  TGI: > 100 µM
K-562 leukemia
  GI50: 8.81 µM
  TGI: > 100 µM
KM12 colon
  GI50: 78.9 µM
  TGI: > 100 µM
LOX IMVI melanoma
  GI50: 15.9 µM
  TGI: 46.9 µM
M14 melanoma
  GI50: 52 µM
  TGI: > 100 µM
MALME-3M melanoma
  GI50: 12.6 µM
  TGI: 38.7 µM
MCF7 breast
  GI50: 8.54 µM
  TGI: 93.2 µM
MDA-MB-231 breast
  GI50: 15.7 µM
  TGI: 39.3 µM
MDA-MB-435
  GI50: 25.1 µM
  TGI: > 100 µM
MDA-MB-468 breast
  GI50: 4.75 µM
  TGI: 40.9 µM
MOLT-4 leukemia
  GI50: 6.44 µM
  TGI: > 100 µM
NCI-H226 lung
  GI50: 11.2 µM
